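Dose response: 5 concentrations. Exposure: 48 h. Format: 96-well plates. Endpoint: linear interpolation; highest concentration if not reached. TGI: concentration producing complete growth inhibition.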
Assays:
Assay in all cases: DTP human tumour cell line panel, 48 h
SNB-75 CNS = test system: SNB-75 CNS
SNB-78 CNS = test system: SNB-78 CNS
LXFL 529 NSCLC = test system: LXFL 529 NSCLC
786-0 renal = test system: 786-0 renal
A498 renal = test system: A498 renal
COLO 205 colon = test system: COLO 205 colon
HCC-2998 colon = test system: HCC-2998 colon
NCI-H23 lung = test system: NCI-H23 lung
OVCAR-3 ovarian = test system: OVCAR-3 ovarian
OVCAR-5 ovarian = test system: OVCAR-5 ovarian
RXF 393 renal = test system: RXF 393 renal
EKVX NSCLC = test system: EKVX NSCLC
ACHN renal = test system: ACHN renal
HOP-18 NSCLC = test system: HOP-18 NSCLC
RPMI-8226 leukemia = test system: RPMI-8226 leukemia
HL-60(TB) leukemia = test system: HL-60(TB) leukemia
K-562 leukemia = test system: K-562 leukemia
UACC-62 melanoma = test system: UACC-62 melanoma
HOP-92 NSCLC = test system: HOP-92 NSCLC
HT29 colon = test system: HT29 colon
SK-OV-3 ovarian = test system: SK-OV-3 ovarian
HOP-62 NSCLC = test system: HOP-62 NSCLC
RXF-631 renal = test system: RXF-631 renal
OVCAR-4 ovarian = test system: OVCAR-4 ovarian
KM12 colon = test system: KM12 colon
KM20L2 colon = test system: KM20L2 colon
NCI-H522 lung = test system: NCI-H522 lung
IGROV1 ovarian = test system: IGROV1 ovarian
SN12C renal = test system: SN12C renal
CCRF-CEM leukemia = test system: CCRF-CEM leukemia
M14 melanoma = test system: M14 melanoma
MALME-3M melanoma = test system: MALME-3M melanoma
NCI-H460 lung = test system: NCI-H460 lung
DMS 273 small cell lung = test system: DMS 273 small cell lung
XF 498 CNS = test system: XF 498 CNS
OVCAR-8 ovarian = test system: OVCAR-8 ovarian
SF-539 CNS = test system: SF-539 CNS
M19-MEL melanoma = test system: M19-MEL melanoma
LOX IMVI melanoma = test system: LOX IMVI melanoma
CAKI-1 renal = test system: CAKI-1 renal
SF-268 CNS = test system: SF-268 CNS
SF-295 CNS = test system: SF-295 CNS
SK-MEL-5 melanoma = test system: SK-MEL-5 melanoma
DMS 114 small cell lung = test system: DMS 114 small cell lung
A549 NSCLC = test system: A549 NSCLC
SW-620 colon = test system: SW-620 colon
UO-31 renal = test system: UO-31 renal
SK-MEL-28 melanoma = test system: SK-MEL-28 melanoma
U251 CNS = test system: U251 CNS
HCT-116 colon = test system: HCT-116 colon
SNB-19 CNS = test system: SNB-19 CNS
TK-10 renal = test system: TK-10 renal
DLD-1 colon = test system: DLD-1 colon
UACC-257 melanoma = test system: UACC-257 melanoma
NCI-H226 lung = test system: NCI-H226 lung
HCT-15 colon = test system: HCT-15 colon
SR leukemia = test system: SR leukemia
SK-MEL-2 melanoma = test system: SK-MEL-2 melanoma
MOLT-4 leukemia = test system: MOLT-4 leukemia

Measured: TGI

COc1cc2c3c(c1OC)/C(=N/OS(=O)(=O)c1ccc(C)cc1)CC3N(S(=O)(=O)c1ccc(C)cc1)CC2 (stereo not drawn)
not listed: HCT-15 colon | SR leukemia | SK-MEL-2 melanoma | MOLT-4 leukemia
> 100 µM: all other assays above

COC(=O)C1=C(C(=O)OC)N(C(C)C)[C@H]2C(C(=O)OC)=C(C(=O)OC)N(C(C)C)[C@@H]12
not listed: HCC-2998 colon
> 100 µM: all other assays above

Reference: PubChem BioAssay (NCI)
